# According to ChEMBL document CHEMBL4321874 (J Med Chem, 2020):
# The source made the active and inactive calls. The calls are words filed in the database; no cut-off is given here.
# Key:
# [1] = Drug metabolism assessed as (4bS)-2-(3-Methyl-1H-pyrazol-4-yl)-5,6,7,8-tetrahydropyrido-[1',2':3,4]imidazo[1,5-a]thieno[3,2-d]pyrimidin-12(4bH)-one formaldehyde adduct formation by measuring retention time at 5 nmol after 30 mins in presence of excess formaldehyde by QTOF-UPLC analysis; assay type: physicochemical; settings: 0.5 h
# CDK8/Cyclin C = CDK8/Cyclin C (Homo sapiens, UniProt P49336); test: Inhibition of kinase tracer 236 binding to recombinant full-length human His-tagged CDK8/CyclinC expressed in baculovirus expression system by Lanthascreen Eu kinase binding assay
# Mus musculus [2] = test: In vivo inhibition of CDC7 in BALB/c mouse xenografted with human COLO205 cells assessed as reduction in MCM2 phosphorylation at Ser40/41 residue in tumor at 100 mg/kg, po after 4 hrs by Western blot analysis; assay type: functional; settings: COLO 205, po
# [3] = molecular target: T1, Cell division cycle 7-related protein kinase (Homo sapiens, UniProt O00311); test: Inhibition of CDC7 in human HeLa cells assessed as inhibition of MCM2 phosphorylation at Ser40 residue in human HeLa cells after 7 hrs by Western blot analysis; assay type: cell-based
# [4] = Toxicity in BALB/c mouse xenografted with human COLO205 cells assessed as effect on body weight at 50 to 100 mg/kg , po adminstered BID for 14 days and measured every 2 to 3 days; assay type: organism-based; settings: in vivo
# [5] = molecular target: Homeodomain-interacting protein kinase 4 (Homo sapiens, UniProt Q8NE63); test: Inhibition of recombinant full-length human N-terminal GST-tagged HIPK4 expressed in baculovirus expression system by Z'-LYTE assay
# [6] = molecular target: T2, CDC7/DBF4 (Cell division cycle 7-related protein kinase/Activator of S phase kinase) (Homo sapiens, UniProt O00311); test: Inhibition of N-terminal GST-fused full-length human CDC7 (1 to 574 end residues)/DBF4 (1 to 674 residues) expressed in baculovirus expression system using MCM2 as substrate in presence of 50 uM ATP by HTRF transcreener ADP assay
# [7] = molecular target: T2, CDC7/DBF4 (Cell division cycle 7-related protein kinase/Activator of S phase kinase); test: Inhibition of N-terminal GST-fused full-length human CDC7 (1 to 574 end residues)/DBF4 (1 to 674 residues) expressed in baculovirus expression system using MCM2 as substrate preincubated with enzyme for 10 mins prior to 1 uM ATP addition by HTRF transcreener ADP assay
# Myotonin-protein kinase = Myotonin-protein kinase (Homo sapiens, UniProt Q09013); test: Inhibition of kinase tracer 236 binding to recombinant full-length human GST-tagged DMPK expressed in baculovirus expression system by Lanthascreen Eu kinase binding assay
# [8] = molecular target: T1, Cell division cycle 7-related protein kinase; test: Inhibition of ATP-specific reporter probe binding to CDC7 (unknown origin) assessed as equilibrium dissociation constant incubated for 60 mins by proteros reporter displacement assay
# [9] = molecular target: T3, Dual specificity protein kinase CLK1 (Homo sapiens, UniProt P49759); test: Inhibition of recombinant human GST-tagged CLK1 catalytic domain (129 to 484 residues) expressed in Escherichia coli by Z'-LYTE assay
# COLO 205 [10] = test: Antitumour activity against human COLO205 cells xenografted in Balb/c mouse assessed as inhibition of tumor growth at 50 to 100 mg/kg, po administered BID for 14 days and measured every 2 to 3 days relative to untreated control; assay type: functional
# [11] = AUC(0 to 8 hrs) in mouse at 10 mg/kg, po dosed via cassette dosing; assay type: ADME, organism-based; parameters: time < 6 hr, dose 10 mg/kg, route oral; settings: in vivo
# COLO 205 [12] = test: Antiproliferative activity against human COLO205 cells assessed as reduction in cell growth after 3 days by CellTiter-Glo luminescence assay; assay type: functional, cell-based; settings: COLO 205, 72 h
# [13] = molecular target: Cyclin-dependent kinase 2/cyclin E1 (Homo sapiens, UniProt P24941); test: Inhibition of N-terminal GST-tagged full-length human CDK2 (1 to 298 residues)/Cyclin E (1 to 410 residues) expressed in baculovirus expression system using histone H1 as susbtrate after 90 mins by Kinase-Glo luminescence assay
# [14] = Cmax in mouse at 10 mg/kg, po dosed via cassette dosing; assay type: ADME, organism-based; parameters: dose 10 mg/kg, route oral; settings: in vivo
# [15] = molecular target: T4, Dual specificity tyrosine-phosphorylation-regulated kinase 1A (Homo sapiens, UniProt Q13627); test: Inhibition of recombinant full-length human GST-tagged DYRK1A expressed in baculovirus expression system by Z'-LYTE assay
# [16] = molecular target: Rho-associated protein kinase 1 (Homo sapiens, UniProt Q13464); test: Inhibition of N-terminal GST-tagged human ROCK1 catalytic domain (1 to 477 residues) expressed in baculovirus expression system using biotin-STK-substrate 2 as substrate preincubated with enzyme for 5 mins followed by ATP addition and measured after 2 hrs by TR-FRET assay
# [17] = molecular target: T5, Death-associated protein kinase 1 (Homo sapiens, UniProt P53355); test: Inhibition of recombinant human N-terminal GST-tagged DAPK1 catalytic domain (1 to 363 residues) expressed in baculovirus expression system by Adapta kinase assay
# [18] = molecular target: T2, CDC7/DBF4 (Cell division cycle 7-related protein kinase/Activator of S phase kinase); test: Inhibition of N-terminal GST-fused full-length human CDC7 (1 to 574 end residues)/DBF4 (1 to 674 residues) expressed in baculovirus expression system using MCM2 as substrate preincubated with enzyme for 60 mins prior to 50 uM ATP addition by HTRF transcreener ADP assay
# [19] = molecular target: T6, Dual specificity tyrosine-phosphorylation-regulated kinase 1B (Homo sapiens, UniProt Q9Y463); test: Inhibition of recombinant full-length human GST-tagged DYRK1B expressed in baculovirus expression system by Z'-LYTE assay
# [20] = molecular target: Casein kinase I isoform gamma-2 (Homo sapiens) (UniProt P78368); test: Inhibition of recombinant full-length human His-tagged CSNK1G2 expressed in baculovirus expression system at 1000 nM by Z'-LYTE assay relative to control
# [21] = molecular target: T6, Dual specificity tyrosine-phosphorylation-regulated kinase 1B; test: Inhibition of recombinant full-length human GST-tagged DYRK1B expressed in baculovirus expression system at 1000 nM by Z'-LYTE assay relative to control
# [22] = molecular target: CDK9/cyclin T1 (Homo sapiens) (UniProt O60563+P50750); test: Inhibition of full-length recombinant human His-tagged CDK9/Cyclin T1 expressed in baculovirus expression system at 1000 nM by Adapta kinase assay relative to control
# [23] = molecular target: Myotonin-protein kinase (Homo sapiens) (UniProt Q09013); test: Inhibition of kinase tracer 236 binding to recombinant full-length human GST-tagged DMPK expressed in baculovirus expression system at 1000 nM by Lanthascreen Eu kinase binding assay relative to control
# [24] = molecular target: T5, Death-associated protein kinase 1; test: Inhibition of recombinant human N-terminal GST-tagged DAPK1 catalytic domain (1 to 363 residues) expressed in baculovirus expression system at 1000 nM by Adapta kinase assay relative to control
# [25] = molecular target: Glycogen synthase kinase-3 alpha (Homo sapiens) (UniProt P49840); test: Inhibition of kinase tracer 236 binding to N-terminal GST-tagged human full length GSK3alpha expressed in baculovirus expression system at 1000 nM by Lanthascreen Eu kinase binding assay relative to control
# [26] = molecular target: T4, Dual specificity tyrosine-phosphorylation-regulated kinase 1A; test: Inhibition of recombinant full-length human GST-tagged DYRK1A expressed in baculovirus expression system at 1000 nM by Z'-LYTE assay relative to control
# [27] = molecular target: CDK8/Cyclin C (Homo sapiens) (UniProt P49336+P24863); test: Inhibition of kinase tracer 236 binding to recombinant full-length human His-tagged CDK8/CyclinC expressed in baculovirus expression system at 1000 nM by Lanthascreen Eu kinase binding assay relative to control
# [28] = molecular target: Serine/threonine-protein kinase 17A (Homo sapiens) (UniProt Q9UEE5); test: Inhibition of kinase tracer 236 binding to recombinant full-length human GST-tagged DRAK1 expressed in baculovirus expression system at 1000 nM by Lanthascreen Eu kinase binding assay relative to control
# [29] = molecular target: Dual specificity protein kinase CLK4 (Homo sapiens) (UniProt Q9HAZ1); test: Inhibition of kinase tracer 236 binding to recombinant full-length human GST-tagged CLK4 expressed in baculovirus expression system at 1000 nM by Lanthascreen Eu kinase binding assay relative to control
# [30] = molecular target: Homeodomain-interacting protein kinase 4 (Homo sapiens) (UniProt Q8NE63); test: Inhibition of recombinant full-length human N-terminal GST-tagged HIPK4 expressed in baculovirus expression system at 1000 nM by Z'-LYTE assay relative to control
# Mus musculus [31] = test: Effect on PARP cleavage in tumor in BALB/c mouse xenografted with human COLO205 cells at 100 mg/kg, po measured for 16 hrs post-treatment by Western blot analysis; assay type: functional, organism-based
# [32] = molecular target: Glycogen synthase kinase-3 beta (Homo sapiens) (UniProt P49841); test: Inhibition of recombinant full-length human His-tagged GSK3beta expressed in baculovirus expression system at 1000 nM by Z'-LYTE assay relative to control
# Mus musculus [33] = test: In vivo inhibition of […] in BALB/c mouse xenografted with human COLO205 cells assessed as MCM2 phosphorylation at Ser 41 residue in tumor at 100 mg/kg, po measured for 16 hrs post-treatment by Western blot analysis; assay type: functional, organism-based
# Mus musculus [34] = test: Increase in cyclin B1 expression in tumor in BALB/c mouse xenografted with human COLO205 cells at 100 mg/kg, po measured for 16 hrs post-treatment by Western blot analysis; assay type: functional, organism-based
# [35] = molecular target: T3, Dual specificity protein kinase CLK1; test: Inhibition of recombinant human GST-tagged CLK1 catalytic domain (129 to 484 residues) expressed in Escherichia coli at 1000 nM by Z'-LYTE assay relative to control
# [36] = molecular target: Death-associated protein kinase 3 (Homo sapiens) (UniProt O43293); test: Inhibition of full-length human GST-tagged DAPK3 expresssed in baculovirus expression system at 1000 nM by Z'-LYTE assay relative to control
# [37] = Drug metabolism assessed as (4bS)-2-(3-Methyl-1H-pyrazol-4-yl)-5,6,7,8-tetrahydropyrido-[1',2':3,4]imidazo[1,5-a]thieno[3,2-d]pyrimidin-12(4bH)-one formaldehyde adduct formation at 5 nmol after 30 mins in presence of excess formaldehyde by QTOF-UPLC analysis
# [38] = molecular target: Dual specificity protein kinase CLK2 (Homo sapiens) (UniProt P49760); test: Inhibition of GST-tagged human recombinant CLK2 catalytic domain (137 to 498 residues) expressed in baculovirus expression system at 1000 nM by Z'-LYTE assay relative to control
# [39] = molecular target: T1, Cell division cycle 7-related protein kinase; test: Binding affinity to CDC7 (unknown origin) assessed as equilibrium dissociation constant
smiles,measurement,setting,value
Cc1n[nH]cc1-c1cc2nc([C@@H]3CCCCN3)[nH]c(=O)c2s1 [listing 1 of 2 here],Retention_time,[1],4.31 min
Cc1n[nH]cc1-c1cc2nc([C@@H]3CCCCN3)[nH]c(=O)c2s1.Cl.Cl,IC50,CDK8/Cyclin C,351 nM
same,inhibition in vivo at 100 mg/kg,Mus musculus [2],72%
same,IC50,[3],36 nM
same,Activity,[4],Non-Toxic
same,IC50,[5],176 nM
same,IC50,[6],120 nM
same,IC50,[7],0.44 nM
same,IC50,Myotonin-protein kinase,64.6 nM
same,Kd,[8],1.96 nM
same,IC50,[9],310 nM
same,T/C,COLO 205 [10],6%
same,AUC(0-t) at 6 h,[11],1350 ng·h/mL
same,EC50,COLO 205 [12],130 nM
same,IC50,[13],6500 nM
same,Cmax,[14],978 ng/mL
same,IC50,[15],59 nM
same,IC50,[16],420 nM
same,IC50,[17],203 nM
same,IC50,[18],0.41 nM
same,IC50,[19],78.6 nM
Cc1n[nH]cc1-c1cc2nc([C@@H]3CCCCN3)[nH]c(=O)c2s1 [listing 2 of 2 here],inhibition,[20],87%
same,inhibition,[21],96%
same,inhibition,[22],90%
same,inhibition,[23],95%
same,inhibition,[24],85%
same,inhibition,[25],89%
same,inhibition,[26],98%
same,inhibition,[27],87%
same,inhibition,[28],99%
same,inhibition,[29],100%
same,inhibition,[30],87%
same,Activity,Mus musculus [31],inactive
same,inhibition,[32],89%
same,inhibition,Mus musculus [33],inactive
same,Activity,Mus musculus [34],Active
same,inhibition,[35],81%
same,inhibition,[36],92%
same,Drug metabolism,[37],Metabolite detected
same,inhibition,[38],88%
Cc1[nH]ncc1-c1cc2nc([C@@H]3CC4CCN3CC4)[nH]c(=O)c2s1 [SIMUROSERTIB],IC50,[3],17 nM
same,IC50,[6],43 nM
same,IC50,[7],0.26 nM
same,IC50,[16],430 nM
same,Kd,[39],0.424 nM
same,IC50,[18],0.54 nM
